Results reported in US20230234942A1, “COMPOUNDS FOR TREATING HUNTINGTON'S DISEASE” (PTC Therapeutics, Inc., priority 2020, published 2023).

System: Endogenous Huntingtin Protein
Assay: Endogenous Huntingtin Protein Assay (ELISA-based MSD electrochemiluminescence)
Type: cell-based
Description: Compounds of Formula (I) were tested using the Meso Scale Discovery (MSD) Assay provided in International Application No. PCT/US2016/066042, filed on Dec. 11, 2016 and claiming priority to U.S. Provisional Application 62/265,652 filed on Dec. 10, 2015, the entire contents of which are incorporated herein by reference.
The Endogenous Huntingtin Protein assay used in Biological Example 1 was developed using the ELISA-based MSD electrochemiluminescence assay platform.
Meso Scale Discovery (MSD) 96-well or 384-well plates were coated overnight at 4° C. with MW1 (expanded polyglutamine) or MAB2166 monoclonal antibody (for capture) at a concentration of 1 μg/mL in PBS (30 μL per well). Plates were then washed three times with 300 μL wash buffer (0.05% Tween-20 in PBS) and blocked (100 μL blocking buffer; 5% BSA in PBS) for 4-5 hours at room temperature with rotational shaking and then washed three times with wash buffer.
Samples (25 μL) were transferred to the antibody-coated MSD plate and incubated overnight at 4° C. After removal of the lysates, the plate was washed three times with wash buffer, and 25 μL of #56565 (Cell signaling; rabbit monoclonal) secondary antibody (diluted to 0.25 μg/mL in 0.05% Tween-20 in blocking buffer) was added to each well and incubated with shaking for 1 Hour at room temperature. Following incubation with the secondary antibody, the wells were rinsed with wash buffer after which 25 μL of goat anti-rabbit SULFO TAG secondary detection antibody (required aspect of the MSD system) (diluted to 0.25 μg/mL in 0.05% Tween-20 in blocking buffer) was added to each well and incubated with shaking for 1 hour at room temperature. After rinsing three times with wash buffer, 150 μL of read buffer T with surfactant (MSD) were added to each empty well, and the plate was imaged on a SI 6000 imager (MSD) according to manufacturers' instructions provided for 96- or 384-well plates.

[1] = Table 2, MSD plates coated with MW1 (expanded polyglutamine) or MAB2166 capture antibody, "inactive" = result above the detection limit of the assay
[2] = Table 3, selected compounds from WO/2019/191229 A1, same MSD assay

Row | IC50 [1] | IC50 [2] | SMILES
1 | 218 nM | – | CC(C)[C@H]1CN(c2ncc(-c3ccc(-c4cnn5cccnc45)cc3O)nn2)CCN1 [Cpd 243, 2-{3-[(3S)-3-(propan-2-yl)piperazin-1-yl]-1,2,4-triazin-6-yl}-5-(pyrazolo[1,5-a]pyrimidin-3-yl)phenol]
2 | 526 nM | – | CC(C)[C@H]1CN(c2ncc(-c3ccc(-c4nnc(C5CC5)o4)cc3O)nn2)CCN1 [Cpd 199, 5-(5-cyclopropyl-1,3,4-oxadiazol-2-yl)-2-{3-[(3S)-3-(propan-2-yl)piperazin-1-yl]-1,2,4-triazin-6-yl}phenol]
3 | 198 nM | – | CC1([C@@H]2CN(c3ncc(-c4ccc(-c5cnn6c5CCC6)cc4O)nn3)CCN2)CC1 [Cpd 281, 5-(5,6-dihydro-4H-pyrrolo[1,2-b]pyrazol-3-yl)-2-{3-[(3R)-3-(1-methylcyclopropyl)piperazin-1-yl]-1,2,4-triazin-6-yl}phenol]
4 | 68.2 nM | – | CC(C)[C@@H]1CN(c2ncc(-c3ccc(-c4cn[nH]c4)cc3O)nn2)CCN1 [Cpd 40, 2-{3-[(3R)-3-(propan-2-yl)piperazin-1-yl]-1,2,4-triazin-6-yl}-5-(1H-pyrazol-4-yl)phenol]
5 | 56.2 nM | – | C=CC1CN(c2ncc(-c3ccc(-c4cn[nH]c4)cc3O)nn2)CCN1 (stereo not drawn) [Cpd 38, 2-[3-(3-ethenylpiperazin-1-yl)-1,2,4-triazin-6-yl]-5-(1H-pyrazol-4-yl)phenol]
6 | 49 nM | – | Cc1cnn(-c2ccc(-c3cnc(N4CCN[C@@H](C(C)C)C4)nn3)c(O)c2)n1 [Cpd 184, 5-(4-methyl-2H-1,2,3-triazol-2-yl)-2-{3-[(3S)-3-(propan-2-yl)piperazin-1-yl]-1,2,4-triazin-6-yl}phenol]
7 | – | 72.8 nM | CC1CN(c2ncc(-c3ccc(-c4cn[nH]c4)cc3O)nn2)CC(C)N1 (stereo not drawn) [WO/2019/191229 A1 Cpd 262, reference compound]
8 | 147 nM | – | Cc1cnc(-c2ccc(-c3cnc(N4CCN[C@@H](C5CC5)C4)nn3)c(O)c2)o1 [Cpd 232, 2-{3-[(3S)-3-cyclopropylpiperazin-1-yl]-1,2,4-triazin-6-yl}-5-(5-methyl-1,3-oxazol-2-yl)phenol]
9 | 116 nM | – | Oc1cc(-c2cn[nH]c2)ccc1-c1cnc(N2CCNC3(CCCC3)C2)nn1 [Cpd 43, 2-[3-(6,9-diazaspiro[4.5]decan-9-yl)-1,2,4-triazin-6-yl]-5-(1H-pyrazol-4-yl)phenol]
10 | 30.1 nM | – | COc1csc(-c2ccc(-c3cnc(N4CCN[C@@H](C(C)C)C4)nn3)c(O)c2)n1 [Cpd 200, 5-(4-methoxy-1,3-thiazol-2-yl)-2-{3-[(3S)-3-(propan-2-yl)piperazin-1-yl]-1,2,4-triazin-6-yl}phenol]
11 | 19.5 nM | – | Cc1ccc2c(cnn2-c2ccc(-c3cnc(N4CCN[C@@H](C(C)C)C4)nn3)c(O)c2)n1 [Cpd 155, 5-(5-methyl-1H-pyrazolo[4,3-b]pyridin-1-yl)-2-{3-[(3S)-3-(propan-2-yl)piperazin-1-yl]-1,2,4-triazin-6-yl}phenol]
12 | 138 nM | – | Cc1cc(-c2ccc(-c3cnc(N4CCNC(C(C)C)C4)nn3)c(O)c2)ccn1 (stereo not drawn) [Cpd 44, 5-(2-methylpyridin-4-yl)-2-{3-[3-(propan-2-yl)piperazin-1-yl]-1,2,4-triazin-6-yl}phenol]
13 | 26.7 nM | – | CC(C)[C@H]1CN(c2ncc(-c3ccc(-c4cn5ncnc5cn4)cc3O)nn2)CCN1 [Cpd 128, 2-{3-[(3S)-3-(propan-2-yl)piperazin-1-yl]-1,2,4-triazin-6-yl}-5-([1,2,4]triazolo[1,5-a]pyrazin-6-yl)phenol]
14 | 4.4 nM | – | CC(C)[C@H]1CN(c2ncc(-c3ccc(-c4c[nH]nc4F)cc3O)nn2)CCN1 [Cpd 3, 5-(3-fluoro-1H-pyrazol-4-yl)-2-{3-[(3S)-3-(propan-2-yl)piperazin-1-yl]-1,2,4-triazin-6-yl}phenol]
15 | 5.2 nM | – | CC(C)[C@H]1CN(c2ncc(-c3ccc(-c4cnc5n4CCC5)cc3O)nn2)CCN1 [Cpd 279, 5-(6,7-dihydro-5H-pyrrolo[1,2-a]imidazol-3-yl)-2-{3-[(3S)-3-(propan-2-yl)piperazin-1-yl]-1,2,4-triazin-6-yl}phenol]
16 | 28.4 nM | – | Cc1nc(-c2ccc(-c3cnc(N4CCN[C@@H](C5CC5)C4)nn3)c(O)c2)cs1 [Cpd 246, 2-{3-[(3S)-3-cyclopropylpiperazin-1-yl]-1,2,4-triazin-6-yl}-5-(2-methyl-1,3-thiazol-4-yl)phenol]
17 | 621 nM | – | CC(C)[C@H]1CN(c2ncc(-c3ccc(-c4nc5cccnc5s4)cc3O)nn2)CCN1 [Cpd 191, 2-{3-[(3S)-3-(propan-2-yl)piperazin-1-yl]-1,2,4-triazin-6-yl}-5-([1,3]thiazolo[5,4-b]pyridin-2-yl)phenol]

Row | IC50 [1] | IC50 [2] | SMILES
18 | 4 nM | – | CC(C)C1CN(c2ncc(-c3ccc(-c4cc(F)c5nn(C)cc5c4)cc3O)nn2)CCN1 (stereo not drawn) [Cpd 71, 5-(7-fluoro-2-methyl-2H-indazol-5-yl)-2-{3-[3-(propan-2-yl)piperazin-1-yl]-1,2,4-triazin-6-yl}phenol]
19 | – | 33.1 nM | C[C@@H]1CN(c2ncc(-c3ccc(-c4ccc5nccn5n4)cc3O)nn2)C[C@H](C)N1 [WO/2019/191229 A1 Cpd 385, reference compound]
20 | 13 nM | – | [2H]C([2H])([2H])Oc1cc(-c2ccc(-c3cnc(N4CCN[C@@H](CC)C4)nn3)c(O)c2)ncn1 [Cpd 133, 2-{3-[(3S)-3-ethylpiperazin-1-yl]-1,2,4-triazin-6-yl}-5-{6-[(^2H3)methyloxy]pyrimidin-4-yl}phenol]
21 | 4.1 nM | – | C[C@@H]1CN(c2ncc(-c3ccc(-c4ccc5nn(C)cc5c4)cc3O)nn2)C[C@H](C)N1 [Cpd 72, 2-{3-[(3R,5S)-3,5-dimethylpiperazin-1-yl]-1,2,4-triazin-6-yl]-5-(2-methyl-2H-indazol-5-yl)phenol]
22 | 16.5 nM | – | Oc1cc(-c2ccsn2)ccc1-c1cnc(N2CCN[C@@H](C3CC3)C2)nn1 [Cpd 252, 2-{3-[(3S)-3-cyclopropylpiperazin-1-yl]-1,2,4-triazin-6-yl}-5-(1,2-thiazol-3-yl)phenol]
23 | 7.8 nM | – | CC(C)[C@H]1CN(c2ncc(-c3ncc(-c4cc(F)c5nn(C)cc5c4)cc3O)nn2)CCN1 [Cpd 157, 5-(7-fluoro-2-methyl-2H-indazol-5-yl)-2-{3-[(3S)-3-(propan-2-yl)piperazin-1-yl]-1,2,4-triazin-6-yl}pyridin-3-ol]
24 | 2.2 nM | – | CCC1CN(c2ncc(-c3ccc(-c4cc(F)c5nc(C)cn5c4)cc3O)nn2)CCN1 (stereo not drawn) [Cpd 68, 2-[3-(3-ethylpiperazin-1-yl)-1,2,4-triazin-6-yl]-5-(8-fluoro-2-methylimidazo[1,2-a]pyridin-6-yl)phenol]
25 | – | 352 nM | CC1CN(c2ncc(-c3ccc(-c4cnn(C)c4)cc3O)nn2)CC(C)N1 (stereo not drawn) [WO/2019/191229 A1 Cpd 263, reference compound]
26 | 28.5 nM | – | COC1(C2CN(c3ncc(-c4ccc(-c5cn[nH]c5)cc4O)nn3)CCN2)CC1 (stereo not drawn) [Cpd 29, 2-{3-[3-(1-methoxycyclopropyl)piperazin-1-yl]-1,2,4-triazin-6-yl}-5-(1H-pyrazol-4-yl)phenol]
27 | 110 nM | – | [2H]C([2H])([2H])n1cc(-c2ccc(-c3cnc(N4CCNC(C(C)C)C4)nn3)c(O)c2)cn1 (stereo not drawn) [Cpd 41, 5-[1-(^2H3)methyl-1H-pyrazol-4-yl]-2-{3-[3-(propan-2-yl)piperazin-1-yl]-1,2,4-triazin-6-yl}phenol]
28 | 466 nM | – | CC(C)[C@H]1CN(c2ncc(-c3ccc(-c4cnccn4)cc3O)nn2)CCN1 [Cpd 144, 2-{3-[(3S)-3-(propan-2-yl)piperazin-1-yl]-1,2,4-triazin-6-yl}-5-(pyrazin-2-yl)phenol]
29 | 4.5 nM | – | CC(C)(O)C1CN(c2ncc(-c3ccc(-c4c[nH]nc4F)cc3O)nn2)CCN1 (stereo not drawn) [Cpd 4, 5-(3-fluoro-1H-pyrazol-4-yl)-2-{3-[3-(2-hydroxypropan-2-yl)piperazin-1-yl]-1,2,4-triazin-6-yl}phenol]
30 | 15.3 nM | – | Cn1cc2cc(-c3ccc(-c4cnc(N5CCN6CCC[C@@H]6C5)nn4)c(O)c3)cc(F)c2n1 [Cpd 105, 5-(7-fluoro-2-methyl-2H-indazol-5-yl)-2-{3-[(8aR)-hexahydropyrrolo[1,2-a]pyrazin-2(1H)-yl]-1,2,4-triazin-6-yl}phenol]
31 | 19.8 nM | – | Cc1cn2nc(-c3ccc(-c4cnc(N5C[C@@H](C)N(C)[C@@H](C)C5)nn4)c(O)c3)cc(C#N)c2n1 [Cpd 108, 6-(3-hydroxy-4-{3-[(3R,5S)-3,4,5-trimethylpiperazin-1-yl]-1,2,4-triazin-6-yl]phenyl)-2-methylimidazo[1,2-b]pyridazine-8-carbonitrile]
32 | 5.2 nM | – | C[C@@H]1CN(c2ncc(-c3ccc(-c4cc(F)c5nn(C)cc5c4)cc3O)nn2)C[C@H](C)N1 [Cpd 79, 2-{3-[(3R,5S)-3,5-dimethylpiperazin-1-yl]-1,2,4-triazin-6-yl}-5-(7-fluoro-2-methyl-2H-indazol-5-yl)phenol]
33 | 356 nM | – | CC(C)[C@H]1CN(c2ncc(-c3ccc(-c4ncc(C#N)s4)cc3O)nn2)CCN1 [Cpd 272, 2-(3-hydroxy-4-{3-[(3S)-3-(propan-2-yl)piperazin-1-yl]-1,2,4-triazin-6-yl}phenyl)-1,3-thiazole-5-carbonitrile]
